In ChEMBL document CHEMBL1201861, “Genomics of Drug Sensitity in Cancer screening data, Wellcome Trust Sanger Institute”:

Legend:
Experiment in all cases: cells
Conditions in all cases: Homo sapiens
NCI-H209 = assay type: functional, cell-based;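 further: growth inhibition of human NCI-H209 cells, measured by a cell viability assay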
Description: SANGER: Inhibition of human NCI-H209 cell growth in a cell viability assay.

TE-6 = assay type: functional, cell-based;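 further: growth inhibition of TE-6 cells, read out with a cell viability assay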
Description: SANGER: Inhibition of human TE-6 cell growth in a cell viability assay.

U-87 MG = assay type: functional, cell-based, U-87MG ATCC;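 further: growth inhibition of the cells measured with a viability assay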
Description: SANGER: Inhibition of human U-87-MG cell growth in a cell viability assay.

SK-N-FI = assay type: functional, cell-based;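 further: cell viability assay measuring growth inhibition of human SK-N-FI cells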
Description: SANGER: Inhibition of human SK-N-FI cell growth in a cell viability assay.

EW-16 = assay type: functional, cell-based;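 further: growth inhibition of human EW-16 cells, read out as cell viability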
Description: SANGER: Inhibition of human EW-16 cell growth in a cell viability assay.

DOHH-2 = assay type: functional, cell-based;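 further: growth inhibition of human DOHH-2 cells, read out with a cell viability assay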
Description: SANGER: Inhibition of human DOHH-2 cell growth in a cell viability assay.

SF-539 = assay type: functional, cell-based;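 further: Read-out is a cell viability assay, with IC50 reflecting inhibition of cell growth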
Description: SANGER: Inhibition of human SF539 cell growth in a cell viability assay.

Ramos-2G6-4C10 = assay type: functional, cell-based;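 further: growth inhibition of the cell line, measured by a cell viability read-out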
Description: SANGER: Inhibition of human Ramos-2G6-4C10 cell growth in a cell viability assay.

EW-1 = assay type: functional, cell-based
Description: SANGER: Inhibition of human EW-1 cell growth in a cell viability assay.

COLO-320-HSR = assay type: functional, cell-based;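 further: growth inhibition of COLO-320-HSR cells, determined with a cell viability assay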
Description: SANGER: Inhibition of human COLO-320-HSR cell growth in a cell viability assay.

HL-60 = assay type: functional, cell-based;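 further: growth inhibition of human HL-60 cells, read out with a cell viability assay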
Description: SANGER: Inhibition of human HL-60 cell growth in a cell viability assay.

TGBC24TKB = assay type: functional, cell-based;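 further: growth inhibition of human TGBC24TKB cells, read out with a cell viability assay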
Description: SANGER: Inhibition of human TGBC24TKB cell growth in a cell viability assay.

BB30-HNC = assay type: functional, cell-based;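 further: growth inhibition of the cultured cell line, read out by a cell viability assay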
Description: SANGER: Inhibition of human BB30-HNC cell growth in a cell viability assay.

KLE = assay type: functional, cell-based;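 further: growth inhibition of human KLE cells, read out with a cell viability assay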
Description: SANGER: Inhibition of human KLE cell growth in a cell viability assay.

NB10 = assay type: functional, cell-based;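 further: growth inhibition of NB10 cells, read out by a cell viability assay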
Description: SANGER: Inhibition of human NB10 cell growth in a cell viability assay.

L-428 = assay type: functional, cell-based
Description: SANGER: Inhibition of human L-428 cell growth in a cell viability assay.

HCC1187 = assay type: functional, cell-based;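 further: growth inhibition of HCC1187 cells, read out with a cell viability assay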
Description: SANGER: Inhibition of human HCC1187 cell growth in a cell viability assay.

NCI-H1304 = assay type: functional, cell-based;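 further: growth inhibition of the cancer cell line, measured in a cell viability assay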
Description: SANGER: Inhibition of human NCI-H1304 cell growth in a cell viability assay.

HT-144 = assay type: functional, cell-based
Description: SANGER: Inhibition of human HT-144 cell growth in a cell viability assay.

NB69 = assay type: functional, cell-based;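 further: growth inhibition of NB69 cells, determined by a cell viability assay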
Description: SANGER: Inhibition of human NB69 cell growth in a cell viability assay.

MZ1-PC = assay type: functional, cell-based;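 further: cell viability assay measuring growth inhibition of human MZ1-PC cells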
Description: SANGER: Inhibition of human MZ1-PC cell growth in a cell viability assay.

RKO = assay type: functional, cell-based;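 further: growth inhibition of human RKO cells, read out with a cell viability assay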
Description: SANGER: Inhibition of human RKO cell growth in a cell viability assay.

UACC-257 = assay type: functional, cell-based
Description: SANGER: Inhibition of human UACC-257 cell growth in a cell viability assay.

ATN-1 = assay type: functional, cell-based;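 further: growth inhibition of human ATN-1 cells, read out with a cell viability assay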
Description: SANGER: Inhibition of human ATN-1 cell growth in a cell viability assay.

A101D = assay type: functional, cell-based;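 further: growth inhibition of the cell line, measured with a viability assay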
Description: SANGER: Inhibition of human A101D cell growth in a cell viability assay.

LU-134-A = assay type: functional, cell-based
Description: SANGER: Inhibition of human LU-134-A cell growth in a cell viability assay.

L-363 = assay type: functional, cell-based
Description: SANGER: Inhibition of human L-363 cell growth in a cell viability assay.

KARPAS-45 = assay type: functional, cell-based;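 further: inhibition of cell line growth, read out through a viability assay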
Description: SANGER: Inhibition of human KARPAS-45 cell growth in a cell viability assay.

NCI-H747 = assay type: functional, cell-based;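 further: growth inhibition of human NCI-H747 cells, read out by a cell viability assay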
Description: SANGER: Inhibition of human NCI-H747 cell growth in a cell viability assay.

OVCAR-4 = assay type: functional, cell-based;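 further: growth inhibition of human OVCAR-4 cells, measured with a cell viability assay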
Description: SANGER: Inhibition of human OVCAR-4 cell growth in a cell viability assay.

Becker = assay type: functional, cell-based;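 further: growth inhibition of Becker cells, read out with a cell viability assay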
Description: SANGER: Inhibition of human Becker cell growth in a cell viability assay.

EKVX = assay type: functional, cell-based;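 further: growth inhibition of human EKVX cells, read out with a cell viability assay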
Description: SANGER: Inhibition of human EKVX cell growth in a cell viability assay.

JVM-3 = assay type: functional, cell-based;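 further: growth inhibition of human JVM-3 cells, read out with a cell viability assay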
Description: SANGER: Inhibition of human JVM-3 cell growth in a cell viability assay.

SNU-5 = assay type: functional, cell-based;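 further: cell viability readout used to measure growth inhibition in human NCI-SNU-5 cells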
Description: SANGER: Inhibition of human NCI-SNU-5 cell growth in a cell viability assay.

ES4 = assay type: functional, cell-based;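 further: growth inhibition of human ES4 cells, read out by a cell viability assay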
Description: SANGER: Inhibition of human ES4 cell growth in a cell viability assay.

NCI-H526 = assay type: functional, cell-based;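 further: growth inhibition of the human NCI-H526 cell line, measured by a cell viability assay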
Description: SANGER: Inhibition of human NCI-H526 cell growth in a cell viability assay.

SK-MEL-1 = assay type: functional, cell-based;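 further: growth inhibition of human SK-MEL-1 cells, read out by a cell viability assay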
Description: SANGER: Inhibition of human SK-MEL-1 cell growth in a cell viability assay.

CAS-1 = assay type: functional, cell-based;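 further: growth inhibition of CAS-1 cells, measured with a cell viability assay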
Description: SANGER: Inhibition of human CAS-1 cell growth in a cell viability assay.

MZ2-MEL = assay type: functional, cell-based;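 further: growth inhibition of MZ2-MEL cells read out with a cell viability assay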
Description: SANGER: Inhibition of human MZ2-MEL cell growth in a cell viability assay.

EW-18 = assay type: functional, cell-based;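 further: growth inhibition of EW-18 cells, read out by a cell viability assay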
Description: SANGER: Inhibition of human EW-18 cell growth in a cell viability assay.

A388 = assay type: functional, cell-based;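 further: growth inhibition of human A388 cells, read out with a cell viability assay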
Description: SANGER: Inhibition of human A388 cell growth in a cell viability assay.

LAMA-84 = assay type: functional, cell-based;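 further: growth inhibition of LAMA-84 cells, read out with a cell viability assay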
Description: SANGER: Inhibition of human LAMA-84 cell growth in a cell viability assay.

KP-N-YS = assay type: functional, cell-based;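 further: cell viability assay measuring inhibition of cell line growth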
Description: SANGER: Inhibition of human KP-N-YS cell growth in a cell viability assay.

SK-PN-DW = assay type: functional, cell-based;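 further: growth inhibition measured with a viability assay on these cells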
Description: SANGER: Inhibition of human SK-PN-DW cell growth in a cell viability assay.

HDLM-2 = assay type: functional, cell-based;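 further: cell viability assay measuring suppression of HDLM-2 proliferation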
Description: SANGER: Inhibition of human HDLM-2 cell growth in a cell viability assay.

NCI-H1395 = assay type: functional, cell-based;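 further: cell viability assay read-out quantifying reduced proliferation of human NCI-H1395 cells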
Description: SANGER: Inhibition of human NCI-H1395 cell growth in a cell viability assay.

Mo = assay type: functional, cell-based
Description: SANGER: Inhibition of human Mo-T cell growth in a cell viability assay.

TE-10 = assay type: functional, cell-based;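 further: growth inhibition of TE-10 cells, measured by a cell viability assay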
Description: SANGER: Inhibition of human TE-10 cell growth in a cell viability assay.

DEL = assay type: functional, cell-based;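 further: growth inhibition of the human DEL cell line, read out with a cell viability assay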
Description: SANGER: Inhibition of human DEL cell growth in a cell viability assay.

DMS-114 = assay type: functional, cell-based
NH-12 = assay type: functional, cell-based;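 further: growth inhibition of NH-12 cells, read out with a cell viability assay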
Description: SANGER: Inhibition of human NH-12 cell growth in a cell viability assay.

SJSA-1 = assay type: functional, cell-based;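 further: growth inhibition of human SJSA-1 cells, read out through a cell viability measurement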
Description: SANGER: Inhibition of human SJSA-1 cell growth in a cell viability assay.

MHH-NB-11 = assay type: functional, cell-based;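 further: growth inhibition of human MHH-NB-11 cells, read out by a cell viability assay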
Description: SANGER: Inhibition of human MHH-NB-11 cell growth in a cell viability assay.

MEG-01 = assay type: functional, cell-based;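 further: growth inhibition of MEG-01 cells, read out by a cell viability assay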
Description: SANGER: Inhibition of human MEG-01 cell growth in a cell viability assay.

MC116 = assay type: functional, cell-based;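 further: growth inhibition of MC116 cells, read out with a cell viability assay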
Description: SANGER: Inhibition of human MC116 cell growth in a cell viability assay.

GI-1 = assay type: functional, cell-based;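 further: growth inhibition of human GI-1 cells, measured with a cell viability readout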
Description: SANGER: Inhibition of human GI-1 cell growth in a cell viability assay.

MOLT-16 = assay type: functional, cell-based
Description: SANGER: Inhibition of human MOLT-16 cell growth in a cell viability assay.

SK-NEP-1 = assay type: functional, cell-based
Description: SANGER: Inhibition of human SK-NEP-1 cell growth in a cell viability assay.

MZ7-mel = assay type: functional, cell-based
Description: SANGER: Inhibition of human MZ7-mel cell growth in a cell viability assay.

NCI-H1581 = assay type: functional, cell-based
Description: SANGER: Inhibition of human NCI-H1581 cell growth in a cell viability assay.

IA-LM = assay type: functional, cell-based
Description: SANGER: Inhibition of human IA-LM cell growth in a cell viability assay.

EW-13 = assay type: functional, cell-based
Description: SANGER: Inhibition of human EW-13 cell growth in a cell viability assay.

GI-ME-N = assay type: functional, cell-based
Description: SANGER: Inhibition of human GI-ME-N cell growth in a cell viability assay.

ONS-76 = assay type: functional, cell-based
Description: SANGER: Inhibition of human ONS-76 cell growth in a cell viability assay.

For CC(=O)c1c(C)c2cnc(Nc3ccc(N4CCNCC4)cn3)nc2n(C2CCCC2)c1=O [PALBOCICLIB], the IC50 (NCI-H209) was > 4000 nM, the IC50 (TE-6) was > 4000 nM and the IC50 (U-87 MG) was > 4000 nM. For the same compound, the IC50 (SK-N-FI) was > 4000 nM, the IC50 (EW-16) was 604 nM and the IC50 (DOHH-2) was > 4000 nM. The IC50 (SF-539) was > 4000 nM, the IC50 (Ramos-2G6-4C10) was 2770 nM and the IC50 (EW-1) was > 4000 nM. For the same compound, the IC50 (COLO-320-HSR) was > 4000 nM, the IC50 (HL-60) was 341 nM and the IC50 (TGBC24TKB) was > 4000 nM. For the same compound, the IC50 (BB30-HNC) was > 4000 nM, the IC50 (KLE) was > 4000 nM and the IC50 (NB10) was 599 nM. For the same compound, the IC50 (L-428) was > 4000 nM, the IC50 (HCC1187) was > 4000 nM and the IC50 (NCI-H1304) was > 4000 nM. The IC50 (HT-144) was > 4000 nM, the IC50 (NB69) was 162 nM and the IC50 (MZ1-PC) was > 4000 nM. The IC50 (RKO) was 2380 nM, the IC50 (UACC-257) was > 4000 nM and the IC50 (ATN-1) was > 4000 nM. For the same compound, the IC50 (A101D) was 3770 nM, the IC50 (LU-134-A) was > 4000 nM and the IC50 (L-363) was 1870 nM. The IC50 (KARPAS-45) was 376 nM, the IC50 (NCI-H747) was 2320 nM and the IC50 (OVCAR-4) was > 4000 nM. The IC50 (Becker) was 2960 nM, the IC50 (EKVX) was > 4000 nM and the IC50 (JVM-3) was 852 nM. The IC50 (SNU-5) was > 4000 nM, the IC50 (ES4) was 2450 nM and the IC50 (NCI-H526) was > 4000 nM. The IC50 (SK-MEL-1) was > 4 µM, the IC50 (CAS-1) was > 4000 nM and the IC50 (MZ2-MEL) was 1800 nM. For the same compound, the IC50 (EW-18) was > 4000 nM, the IC50 (A388) was > 4000 nM and the IC50 (LAMA-84) was 258 nM. The IC50 (KP-N-YS) was 3620 nM, the IC50 (SK-PN-DW) was > 4000 nM and the IC50 (HDLM-2) was > 4 µM. The IC50 (NCI-H1395) was > 4000 nM, the IC50 (Mo) was > 4000 nM and the IC50 (TE-10) was > 4000 nM. The IC50 (DEL) was 1700 nM, the IC50 (DMS-114) was > 4000 nM and the IC50 (NH-12) was > 4000 nM. The IC50 (SJSA-1) was 2380 nM, the IC50 (MHH-NB-11) was 220 nM and the IC50 (MEG-01) was > 4000 nM. The IC50 (MC116) was > 4000 nM, the IC50 (GI-1) was > 4000 nM and the IC50 (MOLT-16) was 258 nM. For the same compound, the IC50 (SK-NEP-1) was 220 nM, the IC50 (MZ7-mel) was > 4000 nM and the IC50 (NCI-H1581) was > 4000 nM. For the same compound, the IC50 (IA-LM) was > 4000 nM, the IC50 (EW-13) was > 4000 nM and the IC50 (GI-ME-N) was > 4000 nM. For the same compound, the IC50 (ONS-76) was 678 nM.
In the case of Cn1c(=O)n(-c2ccc(C(C)(C)C#N)cc2)c2c3cc(-c4cnc5ccccc5c4)ccc3ncc21 [DACTOLISIB], the IC50 (NCI-H209) is reported as 17.3 nM, the IC50 (TE-6) is reported as 220 nM and the IC50 (U-87 MG) is reported as 301 nM. For the same compound, the IC50 (SK-N-FI) was 148 nM, the IC50 (EW-16) was 18 nM and the IC50 (DOHH-2) was 46.4 nM. The IC50 (SF-539) was 52.3 nM, the IC50 (Ramos-2G6-4C10) was 8.49 nM and the IC50 (EW-1) was 120 nM. It also gave an IC50 (COLO-320-HSR) of 403 nM, an IC50 (HL-60) of 123 nM and an IC50 (TGBC24TKB) of 222 nM. The IC50 (BB30-HNC) was 131 nM, the IC50 (KLE) was 252 nM and the IC50 (NB10) was 240 nM. For the same compound, the IC50 (L-428) was 275 nM, the IC50 (HCC1187) was 576 nM and the IC50 (NCI-H1304) was 1650 nM. For the same compound, the IC50 (HT-144) was 196 nM, the IC50 (NB69) was 22.5 nM and the IC50 (MZ1-PC) was 206 nM. The IC50 (RKO) was 38.3 nM, the IC50 (UACC-257) was 214 nM and the IC50 (ATN-1) was 73.9 nM. It also gave an IC50 (A101D) of 39 nM, an IC50 (LU-134-A) of 79 nM and an IC50 (L-363) of 10.7 nM. It also gave an IC50 (KARPAS-45) of 13.5 nM, an IC50 (NCI-H747) of 119 nM and an IC50 (OVCAR-4) of 73.4 nM. For the same compound, the IC50 (Becker) was 34.2 nM, the IC50 (EKVX) was 101 nM and the IC50 (JVM-3) was 30.8 nM. The IC50 (SNU-5) was 337 nM, the IC50 (ES4) was 21.1 nM and the IC50 (NCI-H526) was 824 nM. The IC50 (SK-MEL-1) was > 2 µM, the IC50 (CAS-1) was 207 nM and the IC50 (MZ2-MEL) was 39.7 nM. The IC50 (EW-18) was 31.9 nM, the IC50 (A388) was 250 nM and the IC50 (LAMA-84) was 35.9 nM. For the same compound, the IC50 (KP-N-YS) was 185 nM, the IC50 (SK-PN-DW) was 235 nM and the IC50 (HDLM-2) was > 2 µM. It also gave an IC50 (NCI-H1395) of 199 nM, an IC50 (Mo) of 948 nM and an IC50 (TE-10) of 407 nM. It also gave an IC50 (DEL) of 20.5 nM, an IC50 (DMS-114) of 125 nM and an IC50 (NH-12) of 133 nM. It also gave an IC50 (SJSA-1) of 38.5 nM, an IC50 (MHH-NB-11) of 629 nM and an IC50 (MEG-01) of 63.5 nM. The IC50 (MC116) was 57.8 nM, the IC50 (GI-1) was 60.3 nM and the IC50 (MOLT-16) was 17.2 nM. It also gave an IC50 (SK-NEP-1) of 34.2 nM, an IC50 (MZ7-mel) of 324 nM and an IC50 (NCI-H1581) of 64 nM. It also gave an IC50 (IA-LM) of 108 nM, an IC50 (EW-13) of 95.8 nM and an IC50 (GI-ME-N) of 29.9 nM. The IC50 (ONS-76) was 29.1 nM.
